“Also recorded” adds a separate entry of the source.
Key:
Format in all cases: physicochemical
[1] = Dynamic vapor sorption (DVS) hygroscopicity; conditions: for Hygroscopicity by DVS (up to 95% RH): mass change up to 95% RH
Method: Dynamic Vapor Sorption (DVS). DVS was performed using a Q5000SA. The sample (5-15 mg) was loaded into a metallic quartz sample pan, suspended from a microbalance, and exposed to a humidified stream of nitrogen gas. Weight changes were relative to a matching empty reference pan opposite the sample, suspended from the microbalance. One of two methods was used:
Method 1: The sample was held for a minimum of 10 min at each level and only progressed to the next humidity level if there was <0.002% change in weight between measurements (interval: 5 s) or 60 min had elapsed.

[2] = Stability at 40° C./75% RH for 1 week; conditions: for chemical purity by HPLC after storage / chiral purity by HPLC after storage / XRPD after storage: 40° C. and 75% RH
Method: The humid environment was generated with saturated sodium chloride in water in a sealed container. After one week, the sample appeared pale-yellow upon inspection.
The one-week stability at 75% RH was also tested. In this experiment, 12 mg of the dried crystalline freebase from MeOH were weighted in a 4 mL vial and placed in a 20 mL vial set at 40° C. and 75% RH for 1 week. The humid environment was generated with saturated sodium chloride in water in a sealed container.
The one-week stability at 75% RH was also tested. In this experiment, 12 mg of the crystalline freebase from MeOH was weighted in a 4 mL vial and placed in a 20 mL vial set at 40° C. and 75% RH for 1 week. The humid environment was generated with saturated sodium chloride in water in a sealed container.

[3] = Physical stability by XRPD upon drying at 50° C. under vacuum and exposure to >95% RH; conditions: for XRPD pattern Dry: after drying; for XRPD pattern Dry / XRPD pattern Humid / XRPD pattern Wet: Am = amorphous; for XRPD pattern Humid: after exposure to humidity; for XRPD pattern Wet: solid form of compound R-D1
Method: (§1) X-Ray Powder Diffraction (XRPD). XRPD was performed using a Rigaku MiniFlex 600 in reflection mode (i.e., Bragg-Brentano geometry). Samples were prepared on Si zero-return wafers.
XRPD analysis was done in three stages. XRPD of the wet cake was done for all samples where solids were observed.
The solids were then exposed to >95% RH overnight. This humid environment was produced by placing a beaker of saturated potassium sulfate in water in a sealed container at RT. The materials exposed to these conditions were evaluated by XRPD, and their patterns were compared to those produced before.
The pattern FF-B was dried at 50° C. under vacuum for 3 h after filtration for further XRPD analysis. The solids were then exposed to >95% RH overnight. This humid environment was produced by placing a beaker of saturated potassium sulfate in water in a sealed container at RT. The materials exposed to these conditions were evaluated by XRPD, and their patterns were compared to those of the crystalline freebase along each step.

[4] = Solid form characterisation (TGA/DSC, KF, XRPD, HPLC chemical and chiral purity); conditions: initial, before stability test
Method: Differential Scanning Calorimetry (DSC). DSC was performed using a Mettler Toledo DSC^3+. The sample (1-5 mg) was weighed directly in a 40 μL hermetic aluminum pan with a pinhole and analyzed according to the parameters in Tables 41 and 42.
High Performance Liquid Chromatography (HPLC). HPLC was conducted using an Agilent 1220 Infinity LC or Agilent 1220 Infinity 2 LC equipped with diode array detector (DAD). Flow rate range of the instrument is 0.2-5.0 mL/min, operating pressure range is 0-600 bar, temperature range is 5° C. above ambient to 60° C., and wavelength range is 190-600 nm.
Karl Fischer (KF) Titration. KF titration for water determination was performed using a Mettler Toledo C20S Coulometric KF Titrator equipped with a current generator cell with a diaphragm, and a double-platinum-pin electrode. The range of detection of the instrument is 1 ppm to 5% water. Aquastar™
CombiCoulomat fritless reagent was used in both the anode and cathode compartments. Samples of approximately 0.03-0.10 g were dissolved in the anode compartment and titrated until the solution potential dropped below 100 mV. Hydranal 1 wt. % water standard was used for validation prior to sample analysis.
Simultaneous Thermogravimetric Analysis and Differential Scanning Calorimetry (TGA and DSC). TGA and DSC were performed on the same sample simultaneously using a Mettler Toledo TGA/DSC^3+. Protective and purge gas was nitrogen at a flowrate of 20-30 mL/min and 50-100 mL/min, respectively. The desired amount of sample (5-10 mg) was weighed directly in a hermetic aluminum pan with pinhole and analyzed according to the parameters below:
as §1
XRPD was performed using a Bruker D8 Advance equipped with LYNXEYE detector in reflection mode (i.e., Bragg-Brentano geometry). Samples were prepared on Si zero-return wafers.

[5] = Thermal treatment of solid forms followed by XRPD; conditions: heated, held, cooled down to RT
Method: Thermal Treatment of Amorphous Salt. […] The thermal events were measured by TGA/DSC and XRPD was used to study the resulting materials.
To study the effect of the temperature, the compound was subjected to a thermal treatment consisting of heating up the sample from RT up to 100° C. at a 10° C./min, and holding this temperature for 5 min to subsequently cool down to RT. The sample was collected and further analyzed with XRPD.
The sample was subjected to a thermal treatment consisting of heating the sample gradually (10° C./min) up to the first two thermal events shown by TGA/DSC analysis, i.e., 130 and 225° C. In each case, the temperature was held for 5 min, followed by cooling down to RT. The sample was collected and further analyzed with XRPD. […] Overall, the crystalline freebase Pattern FF-B obtained from acetone lost some crystallinity upon drying and exposure to humidity and heat.

[6] = Amorphous to crystalline studies (long-term slurries, vapor diffusion, slow evaporation); conditions: Am = amorphous
Method: Long-Term Slurries. Long-term slurries were carried out for the purpose of producing crystalline forms. […] In this procedure, 30 mg of solid was added to a 2 mL vial containing a 6.3 mm stir bar. Then, 3 vol. of solvent was added, followed by the addition of more solvent in 5 vol. increments until it formed a flowable slurry. After 10 days, the solids were filtered and transferred to an XRPD plate for further analysis on the wet cake. Overall, crystalline patterns were not observed after one week. However, a crystalline solid was observed after stirring in MeOH for about six weeks.
Vapor-Diffusion Crystallization onto Solution and Solids. […] A suitable solvent was added to completely dissolve the solid, while producing a solution of slightly undersaturated concentration. The open vial was placed inside a 20 mL scintillation vial and 3 mL of antisolvent was added to the 20 mL vial to diffuse into the solution. The 20 mL vial was capped, sealed with parafilm, and kept undisturbed at RT.
Vapor diffusion onto solids was also started. The procedure is very similar, with the only difference that the active pharmaceutical ingredient (API) is not dissolved in a solvent; the vapor diffused directly onto the solid. The samples were monitored for visual changes in the solid (color, texture, size, etc.) over 2 months.
Slow Evaporation. […] The samples that were thin slurries were filtered with a […] syringe filter to obtain a clear solution. In some cases, cosolvent was added to obtain a solution. A needle was inserted in the cap septa to allow the solvents to evaporate slowly. The solutions were monitored frequently for precipitation.

Which results are given for COc1cc(-c2cn(C)c(=O)c3cnc(N4CCC4)cc23)cc(OC)c1CN1CCC(CN2CCC3(CC2)CN(c2ccc4c(c2)C(=O)N([C@@H]2CCC(=O)NC2=O)C4)C3)CC1.O=C(O)CC(O)(CC(=O)O)C(=O)O [Citrate of Compound R-D1]?
HPLC chemical purity after DVS analysis [1]: 99.55%; XRPD after DVS analysis [1]: did not show conversion to a crystalline pattern after performing the DVS analysis; hygroscopicity according to the European Pharmacopeia standards (DVS) [1]: very hygroscopic; Hygroscopicity by DVS (up to 95% RH) [1]: >25.55 wt. %; Purity by HPLC (%) After 1 week 75% RH chemical ([2]; 40° C./75% RH): 99.12%; XRPD pattern Dry [3]: Am; XRPD pattern Humid [3]: Am; XRPD pattern Wet [3]: Am; Purity by HPLC (%) [chiral] [4]: [99.05] %; Purity by HPLC (%) chemical [4]: 99.46%

Which “HPLC chemical purity after DVS analysis” value [1] does the source give for COc1cc(-c2cn(C)c(=O)c3cnc(N4CCC4)cc23)cc(OC)c1CN1CCC(CN2CCC3(CC2)CN(c2ccc4c(c2)C(=O)N([C@@H]2CCC(=O)NC2=O)C4)C3)CC1 [Pattern FF-A] here?
The value was 98.68%.

And the “XRPD after DVS analysis” value [1]?
The value was “new signal at 26=5.8°”.

What about the “hygroscopicity according to the European Pharmacopeia standards (DVS)” value [1] of the same compound?
Its value is “hygroscopic”.

And the “chemical purity by HPLC after storage” value [2]?
The value was 98.27%.

And the “chiral purity by HPLC after storage” value [2]?
The value was 94.55%.

What about the “physical stability (XRPD) upon drying at 50° C. under vacuum and exposure to >95% RH” value [3] of the same compound?
The value was “Reduction in the crystallinity”.

What about the “XRPD after thermal treatment” value [5] of the same compound?
The value was “loss of some crystallinity”.

For COc1cc(-c2cn(C)c(=O)c3cnc(N4CCC4)cc23)cc(OC)c1CN1CCC(CN2CCC3(CC2)CN(c2ccc4c(c2)C(=O)N([C@@H]2CCC(=O)NC2=O)C4)C3)CC1.O=C(O)CC(O)(CC(=O)O)C(=O)O [citrate salt of compound R-D1], which XRPD after storage [2] is on record?
The XRPD after storage was “did not show conversion to a crystalline form”.

And the Pattern ([6]; antisolvent vapor diffusion onto solution, RT, solvent Benzyl alcohol, antisolvent Acetone)?
Its Pattern is “Am”.

What about the Pattern ([6]; antisolvent vapor diffusion onto solution, RT, solvent Benzyl alcohol, antisolvent EtOH) of the same compound?
The Pattern was “Am”.

And the Pattern ([6]; antisolvent vapor diffusion onto solution, RT, solvent Benzyl alcohol, antisolvent MeOAc)?
Its Pattern is “Am”.

And the Pattern ([6]; antisolvent vapor diffusion onto solution, RT, solvent DMAC, antisolvent ACN)?
Its Pattern is “Am”.

And the Pattern ([6]; antisolvent vapor diffusion onto solution, RT, solvent DMAC, antisolvent Acetone)?
Its Pattern is “Am”.

What about the Pattern ([6]; antisolvent vapor diffusion onto solution, RT, solvent DMAC, antisolvent DCM) of the same compound?
Its Pattern is “Am”.

What about the Pattern ([6]; antisolvent vapor diffusion onto solution, RT, solvent DMAC, antisolvent EtOAc) of the same compound?
The Pattern was “Am”.

What about the Pattern ([6]; antisolvent vapor diffusion onto solution, RT, solvent DMAC, antisolvent IPA) of the same compound?
Its Pattern is “Am”.

And the Pattern ([6]; antisolvent vapor diffusion onto solution, RT, solvent DMAC, antisolvent MEK)?
The Pattern was “Am”.

And the Pattern ([6]; antisolvent vapor diffusion onto solution, RT, solvent DMSO, antisolvent Acetone)?
Its Pattern is “Am”.

What about the Pattern ([6]; antisolvent vapor diffusion onto solution, RT, solvent DMSO, antisolvent DCM) of the same compound?
Its Pattern is “Am”.

What about the Pattern ([6]; antisolvent vapor diffusion onto solution, RT, solvent DMSO, antisolvent EtOH) of the same compound?
Its Pattern is “Am”.

What about the Pattern ([6]; antisolvent vapor diffusion onto solution, RT, solvent DMSO, antisolvent MEK) of the same compound?
Its Pattern is “Am”.

What about the Pattern ([6]; antisolvent vapor diffusion onto solution, RT, solvent DMSO, antisolvent MeOAc) of the same compound?
Its Pattern is “Am”.

What about the Pattern ([6]; vapor diffusion onto solids, over 2 months, antisolvent Chloroform) of the same compound?
Its Pattern is “Am”.

And the Pattern ([6]; vapor diffusion onto solids, over 2 months, antisolvent Cyclohexane)?
Its Pattern is “Am”.

And the Pattern ([6]; vapor diffusion onto solids, over 2 months, antisolvent DCM)?
The Pattern was “Am”.

What about the Pattern ([6]; vapor diffusion onto solids, over 2 months, antisolvent Diethyl ether) of the same compound?
The Pattern was “Am”.

What about the Pattern ([6]; vapor diffusion onto solids, over 2 months, antisolvent Hexanes) of the same compound?
Its Pattern is “Am”.

What about the Pattern ([6]; vapor diffusion onto solids, over 2 months, antisolvent MeOH) of the same compound?
Its Pattern is “Am”.

What about the Pattern ([6]; vapor diffusion onto solids, over 2 months, antisolvent Methyl cyclohexane) of the same compound?
Its Pattern is “Am”.

What about the Pattern ([6]; vapor diffusion onto solids, over 2 months, antisolvent MtBE) of the same compound?
The Pattern was “Am”.

What about the “XRPD after thermal treatment” value [5] of the same compound?
The value was “None of these experiments resulted in crystalline solids”.

Which “HPLC chemical purity after DVS analysis” value [1] does the source give for COc1cc(-c2cn(C)c(=O)c3cnc(N4CCC4)cc23)cc(OC)c1CN1CCC(CN2CCC3(CC2)CN(c2ccc4c(c2)C(=O)N([C@@H]2CCC(=O)NC2=O)C4)C3)CC1 [pattern FF-B] here?
The value was 99.06%.

What about the “XRPD after DVS analysis” value [1] of the same compound?
Its value is “slight loss in crystallinity”.

And the “hygroscopicity according to the European Pharmacopeia standards (DVS)” value [1]?
Its value is “hygroscopic”.

What about the “Hygroscopicity by DVS (up to 95% RH)” value [1] of the same compound?
Its value is over 8.80 wt. %.

What about the XRPD after storage [2] of the same compound?
The XRPD after storage was “splitting of the signal at 5.3 and 13.7°”.

And the “chemical purity by HPLC after storage” value [2]?
Its value is 98.56%.

And the “chiral purity by HPLC after storage” value [2]?
The value was 96.13%.

And the “Purity by HPLC (%) After 1 week 75% RH [chiral]” value ([2]; 40° C./75% RH)?
The value was “[96.13] %”.

And the “Purity by HPLC (%) After 1 week 75% RH chemical” value ([2]; 40° C./75% RH)?
Its value is 98.56%.

What about the “physical stability (XRPD) upon drying at 50° C. under vacuum and exposure to >95% RH” value [3] of the same compound?
Its value is “crystallinity of the compound decreased after drying the sample under vacuum; also recorded: Some of the crystallinity was regained after exposing the sample to high RH overnight”.

What about the “XRPD pattern Dry” value [3] of the same compound?
The value was “FF-B”.

And the “XRPD pattern Humid” value [3]?
The value was “FF-B”.

And the “XRPD pattern Wet” value [3]?
The value was “FF-B”.

And the “Purity by HPLC (%) [chiral]” value [4]?
The value was “[96.56] %”.

What about the “Purity by HPLC (%) chemical” value [4] of the same compound?
Its value is 98.85%.

And the “XRPD after thermal treatment” value [5]?
The value was “decreased crystallinity after exposure to 130 °C”.

— patent US11767330B2, “Citrate salt, pharmaceutical compositions, and methods of making and using the same” (Foghorn Therapeutics Inc., priority 2021, dated 2023)
